From PMC9482650, “Quantitative fragmentomics allow affinity mapping of interactomes” (Nature Communications, 2022)
pKd: −log10 of the molar value. Where two headings read alike, the source gives them in different places. Ends that are not written are not given here.

Columns and labels:
[1] = tested on: HEK293T cells; experiment: Label-free MS proteome of stable cell lines expressing HPV16 E6 or E6ΔPBM; format: cell-based, human; details: protein level
Protocol: HEK293T and HeLa cells were authenticated and found 100% identity to ATCC cat. CRL-3216 and ATCC cat. CCL-2, respectively. Jurkat and HaCat cell lines were not authenticated (original source: ECACC and Deutsches Krebsforschungszentrum DKFZ, respectively). HeLa cells were grown in DMEM (1 g/L glucose, Gibco) medium completed with 5% FCS and 40 μg/mL gentamicin, diluted every 3rd/4th day 1/10. HaCat cells were grown in DMEM (1 g/L glucose, Gibco) medium completed with 10% FCS and 40 μg/mL gentamicin, diluted every 3rd/4th day 1/4. Jurkat cells were grown in RPMI (Gibco) medium completed with 10% FCS and 40 μg/mL gentamicin, diluted every 3rd/4th day 1/12. All cells were kept at 37 °C and 5% CO2. For proteomics analyses cells were seeded on T-175 flasks. After they reached confluency, adherent cells were washed with PBS once and collected by scraping with ice-cold lysis buffer (Hepes-KOH pH 7.5 50 mM, NaCl 150 mM, Triton X-100 1%, complete EDTA-free protease inhibitor cocktail 1×, EDTA 2 mM, TCEP 5 mM, glycerol 10%). Jurkat cells were collected by 1000 g × centrifugation, washed once with PBS, then collected by 1000 g × 5 min centrifugation again and lysed in ice-cold lysis buffer. Lysates were sonicated 4 × 20 s with 1 s long pulses on ice, then incubated rotating at 4 °C for 30 min. Lysates were centrifuged at 12,000 rpm 4 °C for 20 min and supernatant was kept for further analysis. Concentration determination was carried out by standard Bradford method (Bio-Rad Protein Assay Dye Reagent #5000006) using BSA (MP BIomedicals #160069) as control on a Bio-Rad SmartSpec 3000 spectrophotometer instrument.
The samples were precipitated with TCA 20% overnight at 4 °C and centrifuged at 14,000 rpm for 10 min at 4 °C. The protein pellets were washed twice with 1 mL cold acetone and air dried. The protein extracts were solubilized in urea 8 M, reduced with 5 mM TCEP for 30 min, and alkylated with 10 mM iodoacetamide for 30 min in the dark. Double digestion was performed at 37 °C with 500 ng endoproteinase Lys-C for 4 h, followed by fourfold dilution and an overnight digestion with 500 ng trypsin. Peptide mixtures were then desalted on C18 spin-column and dried on Speed-Vacuum.
Samples were analyzed using an Ultimate 3000 nano-RSLC (Thermo Scientific, San Jose California) coupled in line with a LTQ-Orbitrap ELITE mass spectrometer via a nano-electrospray ionization source (Thermo Scientific, San Jose California). Peptide mixtures were injected in 0.1% TFA on a C18 Acclaim PepMap100 trap-column (75 µm ID × 2 cm, 3 µm, 100 Å, Thermo Fisher Scientific) for 3 min at 5 µL/min with 2% ACN, 0.1% FA in H2O and then separated on a C18 Accucore nano-column (75 µm ID × 50 cm, 2.6 µm, 150 Å, Thermo Fisher Scientific) at 220 nl/min and 38 °C with a 90 min linear gradient from 5% to 30% buffer B (A: 0.1% FA in H2O/B: 99% ACN, 0.1% FA in H2O), regeneration at 5% B. The mass spectrometer was operated in positive ionization mode, in data-dependent mode with survey scans from m/z 350–1500 acquired in the Orbitrap at a resolution of 120,000 at m/z 400. The 20 most intense peaks from survey scans were selected for further fragmentation in the Linear Ion Trap with an isolation window of 2.0 Da and were fragmented by CID with normalized collision energy of 35%. (TOP20CID method) Unassigned and single charged states were excluded from fragmentation. The Ion Target Value for the survey scans (in the Orbitrap) and the MS2 mode (in the Linear Ion Trap) were set to 1E6 and 5E3 respectively and the maximum injection time was set to 100 ms for both scan modes. Dynamic exclusion was set to 20 s after one repeat count with mass width at ±10 ppm.
Proteins were identified by database searching using SequestHT (Thermo Fisher Scientific) with Proteome Discoverer 2.4 software (PD2.4, Thermo Fisher Scientific) on human FASTA database downloaded from SwissProt (reviewed, release 2020_11_27, 20304 entries, https://www.uniprot.org/). […]

[2] = molecular target: SNX27 PDZ (Homo sapiens, UniProt Q96L92); experiment: Holdup assay; format: binding
[3] = molecular target: SCRIB_1 PDZ (Homo sapiens, UniProt Q14160); experiment: Holdup assay; format: binding
Chain of SCRIB_1 PDZ (Q14160 728-815 limits assumed): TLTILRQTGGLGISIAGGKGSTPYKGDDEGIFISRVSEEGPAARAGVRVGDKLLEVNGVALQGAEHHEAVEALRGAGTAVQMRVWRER

[4] = molecular target: T1, TX1BP3 PDZ (Homo sapiens, UniProt O14907); experiment: Holdup assay; format: binding
T1 sequence (O14907 15-112 limits assumed): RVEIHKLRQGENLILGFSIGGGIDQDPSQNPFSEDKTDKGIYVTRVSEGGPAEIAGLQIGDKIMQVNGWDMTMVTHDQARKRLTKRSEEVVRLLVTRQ

[5] = molecular target: T2, SCRIB2 PDZ (Homo sapiens, UniProt Q14160); experiment: Holdup assay; format: binding
T2 sequence (Q14160 862-950 limits assumed): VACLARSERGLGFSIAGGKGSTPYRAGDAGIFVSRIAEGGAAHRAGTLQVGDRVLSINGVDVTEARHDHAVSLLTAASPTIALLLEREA

[6] = molecular target: DLG1_1 PDZ (Homo sapiens, UniProt Q12959); experiment: Holdup assay; format: binding; details: PBM motif of the named protein vs DLG1_1 PDZ; read-out: pKd values – domain-motif, DLG1_1 (converted)
[7] = molecular target: DLG1_2 PDZ (Homo sapiens, UniProt Q12959); experiment: Holdup assay; format: binding; details: PBM motif of the named protein vs DLG1_2 PDZ; read-out: pKd values – domain-motif, DLG1_2 (converted)
[8] = PBM motif of the named protein vs SCRIB_1 PDZ, read-out: pKd values – domain-motif, SCRIB_1 (converted)
[9] = PBM motif of the named protein vs TX1BP3 PDZ, read-out: pKd values – domain-motif, TX1BP3 (converted)
[10] = PBM motif of the named protein vs SCRIB_2 PDZ, read-out: pKd values – domain-motif, SCRIB_2 (converted)

Substance	pKd [2]	Kd [3, 8]	Kd [6]	Kd [7]	Kd [4, 9]	other results
ESYT2						Difference log2 E6/Ctrl ([1]; E6 cell line vs control): -0.8847; Ratio E6/Ctrl ([1]; E6 cell line vs control): 0.5416; Difference log2 dPBM/E6 ([1]; dPBM cell line vs E6 cell line): -0.2136; Ratio dPBM/E6 ([1]; dPBM cell line vs E6 cell line): 0.8624; Difference log2 dPBM/Ctrl ([1]; dPBM cell line vs control): -1.098; Ratio dPBM/Ctrl ([1]; dPBM cell line vs control): 0.4671
PKMKLNETSF [SHKBP1]	5.54	49 µM				
YLEPVLSSEL [ATP2A2]						pKd ([2]; holdup affinity of the PBM peptide of the named protein, sheet PBMcomplexome, lower sub-table): 4.12; Kd ([3]; holdup affinity of the PBM peptide of the named protein, sheet PBMcomplexome, lower sub-table, 3.5 appears to be the floor for no detectable binding, read-out: affinity of PBM to SCRIB_1 (pKd) (converted)): 41.7 µM; Kd ([4]; holdup affinity of the PBM peptide of the named protein, sheet PBMcomplexome, lower sub-table, 3.5 appears to be the floor for no detectable binding, read-out: affinity of PBM to TX1BP3 (pKd) (converted)): 115 µM; Kd ([5]; holdup affinity of the PBM peptide of the named protein, sheet PBMcomplexome, lower sub-table, 3.5 appears to be the floor for no detectable binding, read-out: affinity of PBM to SCRIB_2 (pKd) (converted)): 275 µM
DLDEEEDTHL [PODXL]	5.15	8.32 µM	234 µM			
SPLHSLETSL [ATP2B1]	5.48	4.37 µM	75.9 µM	21.4 µM	35.5 µM	Kd [5, 10]: 53.7 µM
VLRLQSETSV [VANGL1]	5.70	2.95 µM	35.5 µM	13.8 µM	61.7 µM	Kd [5, 10]: 19.1 µM
ELSATVTTDC [TRIP6]	4.57	33.1 µM		214 µM	331 µM	
GGPKEEESPV [SLC16A1]	5.27	6.61 µM		275 µM		
